{
  "source": "paper PMC11234710",
  "about": "“Comparison of a novel potentiator of CFTR channel activity to ivacaftor in ameliorating mucostasis caused by cigarette smoke in primary human bronchial airway epithelial cells” (Respiratory Research, 2024)",
  "biological_target": "F508del-CFTR (Homo sapiens, UniProt P13569, DEL508-508)",
  "sequence (P13569 with tags, fused parts or gaps DEL508-508)": "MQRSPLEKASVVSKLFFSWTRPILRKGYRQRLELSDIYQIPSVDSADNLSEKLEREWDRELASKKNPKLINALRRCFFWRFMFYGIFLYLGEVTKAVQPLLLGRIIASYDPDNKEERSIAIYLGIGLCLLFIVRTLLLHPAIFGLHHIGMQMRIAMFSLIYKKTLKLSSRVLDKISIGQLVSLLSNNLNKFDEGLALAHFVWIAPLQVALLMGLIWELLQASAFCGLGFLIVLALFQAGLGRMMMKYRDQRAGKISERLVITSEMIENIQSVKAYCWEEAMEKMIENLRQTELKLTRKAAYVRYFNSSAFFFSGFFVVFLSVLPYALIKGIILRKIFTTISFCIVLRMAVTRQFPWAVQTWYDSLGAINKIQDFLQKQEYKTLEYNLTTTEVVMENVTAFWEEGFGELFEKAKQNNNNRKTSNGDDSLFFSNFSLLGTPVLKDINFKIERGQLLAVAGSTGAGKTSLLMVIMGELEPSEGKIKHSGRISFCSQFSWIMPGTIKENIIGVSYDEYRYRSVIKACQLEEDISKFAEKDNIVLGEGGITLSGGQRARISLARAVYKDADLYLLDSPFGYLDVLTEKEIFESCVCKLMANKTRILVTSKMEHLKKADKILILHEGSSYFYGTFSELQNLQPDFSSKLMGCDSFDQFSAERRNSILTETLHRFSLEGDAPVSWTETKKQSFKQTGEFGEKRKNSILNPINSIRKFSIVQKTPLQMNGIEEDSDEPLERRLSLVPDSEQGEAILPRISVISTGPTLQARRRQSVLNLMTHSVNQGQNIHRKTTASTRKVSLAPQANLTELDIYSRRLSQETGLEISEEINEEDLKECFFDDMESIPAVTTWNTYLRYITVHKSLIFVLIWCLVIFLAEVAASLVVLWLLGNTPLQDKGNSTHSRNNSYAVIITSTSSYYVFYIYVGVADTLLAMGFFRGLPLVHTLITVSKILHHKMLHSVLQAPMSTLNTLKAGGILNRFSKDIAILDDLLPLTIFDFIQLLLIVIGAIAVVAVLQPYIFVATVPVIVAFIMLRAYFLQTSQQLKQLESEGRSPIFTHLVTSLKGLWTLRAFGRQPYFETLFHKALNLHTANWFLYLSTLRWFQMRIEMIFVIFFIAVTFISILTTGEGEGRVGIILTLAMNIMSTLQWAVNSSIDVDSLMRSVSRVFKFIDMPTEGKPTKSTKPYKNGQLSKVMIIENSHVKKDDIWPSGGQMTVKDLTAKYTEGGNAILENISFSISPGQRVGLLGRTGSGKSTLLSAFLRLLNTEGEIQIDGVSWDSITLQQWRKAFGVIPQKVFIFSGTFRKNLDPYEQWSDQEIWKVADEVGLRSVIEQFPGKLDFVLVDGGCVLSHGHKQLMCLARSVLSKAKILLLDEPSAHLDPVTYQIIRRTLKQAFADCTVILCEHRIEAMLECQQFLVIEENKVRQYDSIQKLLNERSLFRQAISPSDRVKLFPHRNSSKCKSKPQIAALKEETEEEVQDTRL",
  "test": "fluorescence membrane potential assay in HEK-293 cells expressing F508del-CFTR, […] °C, forskolin activated",
  "type": "cell-based",
  "data": [
    {"smiles": "CC(C)(C)c1cc(C(C)(C)C)c(NC(=O)c2c[nH]c3ccccc3c2=O)cc1O", "note": "[VX-770]", "values": [
      {"measurement": "EC50", "value": 0.384, "unit": "µM"}
    ]}
  ]
}
